# “And” between values parts separate entries of the source, which are not always exact repeats. Identical values can stand only once.
# Test system: NCI-H211 tumor spheroids, viability percent test/control
# Assay: Anticancer human tumor NCI-H211 cell line growth inhibition;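 further: spheroids exposed to agents for seven days before readout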
# Details: spheroids with HUVEC and MSC; for viability, T/C: stronger effect = lower value
# Procedure, shortened: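 Complex tumor spheroids combined malignant cells with endothelial cells and mesenchymal stem cells. DNA-damaging drugs and DNA repair inhibitors were tested alone and in combination, at half-log dilutions down from clinical Cmax (top 10 microM if Cmax unknown), 0.25% DMSO final.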
# [1] = curve of first compound, second compound 1 µM
# [2] = curve of first compound, second compound 3.16 µM
# [3] = curve of first compound, second compound 10 µM
# [4] = curve of first compound, second compound 31.6 µM
# [5] = curve of first compound, second compound 100 µM
# [6] = second compound 1 µM, first compound 0.0949 µM
# [7] = second compound 1 µM, first compound 0.3 µM
# [8] = second compound 1 µM, first compound 0.949 µM
# [9] = second compound 1 µM, first compound 3 µM
# [10] = second compound 3.16 µM, first compound 0.0949 µM
# [11] = second compound 3.16 µM, first compound 0.3 µM
# [12] = second compound 3.16 µM, first compound 0.949 µM
# [13] = second compound 3.16 µM, first compound 3 µM
# [14] = second compound 10 µM, first compound 0.0949 µM
# [15] = second compound 10 µM, first compound 0.3 µM
# [16] = second compound 10 µM, first compound 0.949 µM
# [17] = second compound 10 µM, first compound 3 µM
# [18] = second compound 31.6 µM, first compound 0.0949 µM
# [19] = second compound 31.6 µM, first compound 0.3 µM
# [20] = second compound 31.6 µM, first compound 0.949 µM
# [21] = second compound 31.6 µM, first compound 3 µM
# [22] = second compound 100 µM, first compound 0.0949 µM
# [23] = second compound 100 µM, first compound 0.3 µM
# [24] = second compound 100 µM, first compound 0.949 µM
# [25] = second compound 100 µM, first compound 3 µM
smiles,measurement,setting,value
Cc1sc2c(c1C)C(c1ccc(Cl)cc1)=NC(CC(=O)Nc1ccc(O)cc1)c1nnc(C)n1-2 (configuration not stated) + Cn1nnc2c(C(N)=O)ncn2c1=O,IC50,[1],< 9.49 nM
same,IC50,[2],< 9.49 nM
same,IC50,[3],< 9.49 nM
same,IC50,[4],< 9.49 nM
same,IC50,[5],< 9.49 nM
same,"viability, T/C","second compound 1 µM, first compound 0.00949 µM",25.5%
same,"viability, T/C","second compound 1 µM, first compound 0.03 µM",2.24%
same,"viability, T/C",[6],0.88%
same,"viability, T/C",[7],0.67%
same,"viability, T/C",[8],0.78%
same,"viability, T/C",[9],0.72%
same,"viability, T/C","second compound 3.16 µM, first compound 0.00949 µM",36.7%
same,"viability, T/C","second compound 3.16 µM, first compound 0.03 µM",3.37%
same,"viability, T/C",[10],0.97%
same,"viability, T/C",[11],0.76%
same,"viability, T/C",[12],0.66%
same,"viability, T/C",[13],0.82%
same,"viability, T/C","second compound 10 µM, first compound 0.00949 µM",31.8%
same,"viability, T/C","second compound 10 µM, first compound 0.03 µM",1.97%
same,"viability, T/C",[14],1.15%
same,"viability, T/C",[15],0.79%
same,"viability, T/C",[16],0.76%
same,"viability, T/C",[17],0.74%
same,"viability, T/C","second compound 31.6 µM, first compound 0.00949 µM",22%
same,"viability, T/C","second compound 31.6 µM, first compound 0.03 µM",1.97%
same,"viability, T/C",[18],1.02%
same,"viability, T/C",[19],0.79%
same,"viability, T/C",[20],0.71%
same,"viability, T/C",[21],0.82%
same,"viability, T/C","second compound 100 µM, first compound 0.00949 µM",6.77%
same,"viability, T/C","second compound 100 µM, first compound 0.03 µM",1.61%
same,"viability, T/C",[22],1.08%
same,"viability, T/C",[23],1.09%
same,"viability, T/C",[24],0.86%
same,"viability, T/C",[25],1.03%
CNCc1ccc(-c2cc(-c3nc(-c4ccc(S(=O)(=O)C(C)C)cc4)cnc3N)on2)cc1,"viability, T/C",compound 0.00949 µM,66.6% and 86.6% and 97.1%
same,"viability, T/C",compound 0.03 µM,44.6% and 56.7% and 86.2%
same,"viability, T/C",compound 0.0949 µM,9.22% and 5.33% and 14.5%
same,"viability, T/C",compound 0.3 µM,1.18% and 1.04% and 0.87%
same,"viability, T/C",compound 0.949 µM,0.24% and 0.22% and 0.59%
same,"viability, T/C",compound 3 µM,0.17% and 0.19% (2×)
same,IC50,curve of compound,22.6 nM and 34.8 nM and 53.7 nM
O=C(c1cc(Cc2n[nH]c(=O)c3ccccc23)ccc1F)N1CCN(C(=O)C2CC2)CC1 + Cn1nnc2c(C(N)=O)ncn2c1=O,IC50,[1],< 94.9 nM
same,IC50,[2],< 94.9 nM
same,IC50,[3],< 94.9 nM
same,IC50,[4],< 94.9 nM
same,IC50,[5],< 94.9 nM
same,"viability, T/C",[6],38.8%
same,"viability, T/C",[7],24.3%
same,"viability, T/C",[8],9.48%
same,"viability, T/C",[9],11.2%
same,"viability, T/C","second compound 1 µM, first compound 9.49 µM",7.85%
same,"viability, T/C","second compound 1 µM, first compound 30 µM",6.43%
same,"viability, T/C",[10],39.2%
same,"viability, T/C",[11],16.4%
same,"viability, T/C",[12],12.2%
same,"viability, T/C",[13],8.6%
same,"viability, T/C","second compound 3.16 µM, first compound 9.49 µM",8.67%
same,"viability, T/C","second compound 3.16 µM, first compound 30 µM",6.42%
same,"viability, T/C",[14],20.4%
same,"viability, T/C",[15],13.6%
same,"viability, T/C",[16],8.65%
same,"viability, T/C",[17],8.76%
same,"viability, T/C","second compound 10 µM, first compound 9.49 µM",8.42%
same,"viability, T/C","second compound 10 µM, first compound 30 µM",5.87%
same,"viability, T/C",[18],9.76%
same,"viability, T/C",[19],10.7%
same,"viability, T/C",[20],8.79%
same,"viability, T/C",[21],8.73%
same,"viability, T/C","second compound 31.6 µM, first compound 9.49 µM",8.23%
same,"viability, T/C","second compound 31.6 µM, first compound 30 µM",6.62%
same,"viability, T/C",[22],10.7%
same,"viability, T/C",[23],9.41%
same,"viability, T/C",[24],10.1%
same,"viability, T/C",[25],9.99%
same,"viability, T/C","second compound 100 µM, first compound 9.49 µM",8.37%
same,"viability, T/C","second compound 100 µM, first compound 30 µM",6.94%

# Reference: PubChem BioAssay AID1845209 (Molecular Pharmacology Branch, DTP, NCI, 2023)
